These compounds were tested on GUMC-403 (assay: AC50 for reduction of cell viability; higher = less potent). Settings: library / dose series: NPC library, 8-point 1:5 dilution; 48 h.

Question: How did the “AC50 for reduction of cell viability” value turn out when `CO[C@@]12[C@H](COC(N)=O)C3=C(C(=O)C(C)=C(N)C3=O)N1C[C@@H]1N[C@@H]12` was run?
Answer: The value was 16.8 µM.

Question: How did the “AC50 for reduction of cell viability” value turn out when `CN(C)C(=S)SSC(=S)N(C)C` was run?
Answer: Its value is 18.8 µM.

Question: With `CC[C@H](O)C(C[C@H](C)N(C)C)(c1ccccc1)c1ccccc1.Cl` as the compound, how does the “AC50 for reduction of cell viability” value read?
Answer: The value was 44.1 µM.

Question: `CC[n+]1c(-c2ccccc2)c2cc(N)ccc2c2ccc(N)cc21.[Br-]` was tested. Which “AC50 for reduction of cell viability” value did it give?
Answer: Its value is 9.44 µM.

Question: For `CCCCCCCCCCCCCCCC[N+](C)(C)C.[Br-]`, which “AC50 for reduction of cell viability” value is on record?
Answer: The value was 21.1 µM.

Question: `C[C@@]12C(=O)OC(=O)[C@]1(C)C1CCC2O1` was tested. Which “AC50 for reduction of cell viability” value did it give?
Answer: Its value is 3.35 µM.

Question: How did the “AC50 for reduction of cell viability” value turn out when `C[n+]1cc2c3c(ccc2c2ccc4cc5c(cc4c21)OCO5)OCO3` was run?
Answer: The value was 1.3 µM.

Question: For `COc1cccc2c1C(=O)c1c(O)c3c(c(O)c1C2=O)C[C@@](O)(C(C)=O)C[C@@H]3O[C@H]1C[C@H](N)[C@H](O)[C@H](C)O1`, which “AC50 for reduction of cell viability” value is on record?
Answer: Its value is 2.66 µM.

Question: With `COc1cc2ncnc(Nc3ccc(F)c(Cl)c3)c2cc1OCCCN1CCOCC1` as the compound, how does the “AC50 for reduction of cell viability” value read?
Answer: The value was 1.19 µM.

Question: How did the “AC50 for reduction of cell viability” value turn out when `C[C@H]1O[C@@H](O[C@H]2CC[C@@]3(C)[C@H](CC[C@@H]4[C@@H]3C[C@@H](O)[C@]3(C)[C@@H](C5=CC(=O)OC5)CC[C@]43O)C2)C[C@H](O)[C@@H]1O[C@H]1C[C@H](O)[C@H](O[C@H]2C[C@H](O)[C@H](O[C@@H]3O[C@H](CO)[C@@H](O)[C@H](O)[C@H]3O)[C@@H](C)O2)[C@@H](C)O1` was run?
Answer: Its value is 0.106 µM.

Question: How did the “AC50 for reduction of cell viability” value turn out when `O=C(CCCN1CC=C(n2c(=O)[nH]c3ccccc32)CC1)c1ccc(F)cc1` was run?
Answer: Its value is 18.8 µM.

Question: How did the “AC50 for reduction of cell viability” value turn out when `O=c1[nH]c2ccccc2n1C1CCN(CCCC(c2ccc(F)cc2)c2ccc(F)cc2)CC1` was run?
Answer: The value was 2.66 µM.

Question: `C[C@@H]1O[C@@H](O[C@@H]2C=C3CC[C@@H]4[C@H](CC[C@]5(C)[C@@H](c6ccc(=O)oc6)CC[C@]45O)[C@@]3(C)CC2)[C@H](O)[C@H](O)[C@H]1O` was tested. Which “AC50 for reduction of cell viability” value did it give?
Answer: The value was 0.0119 µM.

These compounds were tested on GUMC-403 (assay: viability at highest tested concentration (max response) relative to DMSO (% of DMSO control); higher = less cytotoxic). Settings: library / dose series: MIPE library, 11-point 1:3 dilution; top concentration 23 µM; 48 h.
Method in brief: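 Each figure stands for viability at the highest tested concentration compared with vehicle control. It was measured by CellTiter-Glo luminescence on a ViewLux after 48 h of exposure to 23 nL of pinned compound, with vehicle wells taken as 100% and empty wells as 0%. The cells were patient-derived GUMC-403 papilloma cells grown by conditional reprogramming, plated at 700/well in 5 μL F + Y medium in 1536-well plates.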

Question: With `Cn1c(CNc2ccc(C(=N)N)cc2)nc2cc(C(=O)N(CCC(=O)O)c3ccccn3)ccc21` as the compound, how does the viability read?
Answer: The viability was 134.

Same assay, conditions: library / dose series: MIPE library, 11-point 1:3 dilution; top concentration 46.1 µM; 48 h

Question: `CN(C)c1ccc2nc3ccc(N(C)C)cc3[s+]c2c1` was tested. Which viability did it give?
Answer: The viability was 6.57.

Question: How did the viability turn out when `CC(C)C[C@H](NC(=O)CNC(=O)c1cc(Cl)ccc1Cl)B1OC(=O)CC(CC(=O)O)(C(=O)O)O1` (some centres undefined) was run?
Answer: Its viability is 38.8.

Question: For `CCc1c(O)cc(O)c(C(=O)c2ccc(OCCN3CCOCC3)c(OC)c2)c1CC(=O)N(CCOC)CCOC`, which viability is on record?
Answer: The viability was 56.6.

Question: With `CCN(CC)C(=S)SSC(=S)N(CC)CC` as the compound, how does the viability read?
Answer: Its viability is 58.9.

Question: Which viability does the source give for `Cc1ccc2nc(NCCN)c3ncc(C)n3c2c1` here?
Answer: Its viability is 33.4.

Question: With `CC/C(=C(/c1ccc(O)cc1)c1ccc(OCCNC)cc1)c1ccccc1` as the compound, how does the viability read?
Answer: The viability was 23.9.

Question: With `CN1CCN(c2cc(C(=O)Nc3ccc4c(c3)-c3c(c(C(N)=O)nn3-c3ccc(F)cc3)CC4)c(Cl)cn2)CC1` as the compound, how does the viability read?
Answer: Its viability is 7.1.

Question: With `COc1cc2ncn(-c3cc(OCc4ccccc4C(F)(F)F)c(C(N)=O)s3)c2cc1OC` as the compound, how does the viability read?
Answer: Its viability is 18.8.

Question: `CC1(C)C(N(O)C(=O)Nc2ccc(Cl)cc2)N(c2ccc(Cl)cc2)C(=O)N1CC(=O)N/N=C/C=C/c1ccc([N+](=O)[O-])o1` (centres undefined) was tested. Which viability did it give?
Answer: Its viability is 85.4.

Question: With `CCCCCCCCCC(=O)N[C@@H](Cc1c[nH]c2ccccc12)C(=O)N[C@H](CC(N)=O)C(=O)N[C@@H](CC(=O)O)C(=O)N[C@@H]1C(=O)NCC(=O)N[C@@H](CCCN)C(=O)N[C@@H](CC(=O)O)C(=O)N[C@H](C)C(=O)N[C@@H](CC(=O)O)C(=O)NCC(=O)N[C@H](CO)C(=O)N[C@@H]([C@@H](C)CC(=O)O)C(=O)N[C@@H](CC(=O)c2ccccc2N)C(=O)O[C@@H]1C` as the compound, how does the viability read?
Answer: Its viability is 101.

Question: For `CC(NC1=CC=CC=C1)C\2=C\C(=C/N3C(=O)\C=C(/N=C23)N4CCOCC4)C` (centres undefined), which viability is on record?
Answer: The viability was 79.7.

Question: With `COc1cc(C)c(Sc2cnc(NC(=O)c3ccc(CNC(C)C(C)(C)C)cc3)s2)cc1C(=O)N1CCN(C(C)=O)CC1` (centres undefined) as the compound, how does the viability read?
Answer: The viability was 71.7.

Question: For `COc1ccc2c(c1)CC[C@@H](CN(C)CC(=O)O)[C@H]2c1ccccc1`, which viability is on record?
Answer: Its viability is 78.3.

Question: `CN1CCN(c2c(F)cc3c(=O)c(C(=O)O)cn(CCF)c3c2F)CC1` was tested. Which viability did it give?
Answer: Its viability is 104.

Question: `COc1cc2c(N3CCN(C(=O)Nc4ccc(OC(C)C)cc4)CC3)ncnc2cc1OCCCN1CCCCC1` was tested. Which viability did it give?
Answer: The viability was 109.

Question: With `CCC(=O)NCC[C@@H]1CCc2ccc3c(c21)CCO3` as the compound, how does the viability read?
Answer: Its viability is 122.

Question: Which viability does the source give for `C=C1/C(=C\C=C2/CCC[C@]3(C)[C@@H]([C@H](C)/C=C/[C@H](C)C(C)C)CC[C@@H]23)C[C@@H](O)C[C@@H]1O` here?
Answer: Its viability is 150.

Question: `Nc1nc(Cl)nc2c1ncn2[C@@H]1O[C@H](CO)[C@@H](O)[C@@H]1F` was tested. Which viability did it give?
Answer: Its viability is 104.

Question: How did the viability turn out when `COc1cc(C(C)C)c(Oc2cnc(NC(CO)CO)nc2N)cc1I` was run?
Answer: The viability was 115.

Question: `C[S+](=O)([O-])Oc1ccc2c(NC(N)=O)c(C(=O)c3ccc(Cl)cc3Cl)oc2c1` was tested. Which viability did it give?
Answer: The viability was 108.

Question: How did the viability turn out when `CCN(CC)CCN1C(=O)\C(=N/C2=CC=CC=C12)CC3=CC=C(OC)C=C3` was run?
Answer: Its viability is 129.

Question: `COC1=CC=C2[N](CCCN(C)C)C=C(C2=C1)C/3=C(/C(=O)NC3=O)C4=C[NH]C5=C4C=CC=C5` was tested. Which viability did it give?
Answer: Its viability is 102.

Question: Which viability does the source give for `COC(=O)C/1=C/O[C@@H](O)[C@H]\2[C@@H]1C\C=C2CO` here?
Answer: Its viability is 94.5.

Question: With `CNCc1ccc(-c2[nH]c3cc(F)cc4c3c2CCNC4=O)cc1` as the compound, how does the viability read?
Answer: The viability was 93.2.

Same assay, conditions: library / dose series: MIPE library, 11-point 1:3 dilution; top concentration 92.2 µM; 48 h

Question: With `C[C@H]1O[C@H](C[C@H](O)[C@@H]1O)O[C@H]2[C@@H](O)C[C@@H](O[C@@H]2C)O[C@H]3[C@@H](O)C[C@@H](O[C@@H]3C)O[C@H]4CC[C@@]5(C)[C@H](CC[C@@H]6[C@@H]5C[C@@H](O)[C@]7(C)[C@H](CC[C@]67O)C/8=C/C(=O)OC8)C4` as the compound, how does the viability read?
Answer: The viability was 48.5.
